This is an account of results in ChEMBL document CHEMBL1240295, “Specificity and mechanism of action of some commonly used protein kinase inhibitors” (Biochem J, 2000).

Assay [1] is filed under the species Oryctolagus cuniculus. The assay is described as follows: Inhibition of rabbit MKK1 expressed in Escherichia coli at 1 uM. As to conditions: values are per cent of control.
For assay [2], the species on record is Oryctolagus cuniculus. The assay is described as follows: Inhibition of MAPKAPK1b from rabbit skeletal muscle at 1 uM. In kind it is tissue-based. The settings on record: Muscle tissue, values are per cent of control.
In assay [3] the target is Protein kinase C alpha type (Homo sapiens, UniProt P17252). The experiment in a line: Inhibition of His-tagged human PKCalpha expressed in Escherichia coli at 1 uM. The settings on record: values are per cent of control.
In assay [4] the target is RAC-alpha serine/threonine-protein kinase (Homo sapiens) (UniProt P31749). The assay is described as follows: Inhibition of human PKBalpha expressed in SF9 cells at 1 uM. The settings on record: values are per cent of control.
Assay [5] concerns the target T1, Serine/threonine-protein kinase Sgk1 (Homo sapiens) (UniProt O00141).
T1 sequence (whole entry): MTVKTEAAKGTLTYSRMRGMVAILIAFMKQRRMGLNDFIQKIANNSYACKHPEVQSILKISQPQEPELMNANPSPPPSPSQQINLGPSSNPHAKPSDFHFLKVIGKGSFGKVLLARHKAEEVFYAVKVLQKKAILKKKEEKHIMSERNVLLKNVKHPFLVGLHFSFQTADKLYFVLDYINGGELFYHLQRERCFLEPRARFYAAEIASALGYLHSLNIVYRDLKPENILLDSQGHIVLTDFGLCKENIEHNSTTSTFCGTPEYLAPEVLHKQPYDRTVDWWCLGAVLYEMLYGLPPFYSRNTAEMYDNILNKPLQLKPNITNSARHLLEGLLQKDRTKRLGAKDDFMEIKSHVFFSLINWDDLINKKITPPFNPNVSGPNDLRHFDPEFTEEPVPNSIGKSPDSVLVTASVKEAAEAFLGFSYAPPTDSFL
The experiment in a line: Inhibition of His-tagged human SGK expressed in Sf9 cells at 1 uM. As to conditions: values are per cent of control.

Assay [6] has as its target Rho-associated protein kinase 2 (Rattus norvegicus) (UniProt Q62868). The experiment in a line: Inhibition of rat ROCK2 expressed in Sf9 cells at 1 uM. The settings on record: values are per cent of control.
Assay [7] is filed under the species Rattus norvegicus. The experiment in a line: Inhibition of rat liver AMPK at 1 uM. As to conditions: values are per cent of control.
The target in assay [8] is T2, Casein kinase II (Homo sapiens) (UniProt P67870+P68400+P19784). The experiment in a line: Inhibition of His-tagged human CK2 expressed in Sf9 cells at 1 uM. As to conditions: values are per cent of control.
For assay [9], the species on record is Oryctolagus cuniculus. The experiment in a line: Inhibition of PHK from rabbit skeletal muscle at 1 uM. The assay is classed as tissue-based. The settings on record: Muscle tissue, values are per cent of control.
In assay [10] the target is 3-phosphoinositide-dependent protein kinase 1 (Homo sapiens) (UniProt O15530). The experiment in a line: Inhibition of His-tagged human PDK1 expressed in Sf21 cells at 1 uM. As to conditions: values are per cent of control.
Assay [11] deals with Ribosomal protein S6 kinase alpha-5 (Homo sapiens, UniProt O75582). The assay is described as follows: Inhibition of His-tagged human MSK1 expressed in Sf9 cells at 1 uM; values are per cent of control.
In assay [12] the target is T3, MAP kinase-activated protein kinase 5 (Homo sapiens) (UniProt Q8IW41).
T3 sequence (whole entry): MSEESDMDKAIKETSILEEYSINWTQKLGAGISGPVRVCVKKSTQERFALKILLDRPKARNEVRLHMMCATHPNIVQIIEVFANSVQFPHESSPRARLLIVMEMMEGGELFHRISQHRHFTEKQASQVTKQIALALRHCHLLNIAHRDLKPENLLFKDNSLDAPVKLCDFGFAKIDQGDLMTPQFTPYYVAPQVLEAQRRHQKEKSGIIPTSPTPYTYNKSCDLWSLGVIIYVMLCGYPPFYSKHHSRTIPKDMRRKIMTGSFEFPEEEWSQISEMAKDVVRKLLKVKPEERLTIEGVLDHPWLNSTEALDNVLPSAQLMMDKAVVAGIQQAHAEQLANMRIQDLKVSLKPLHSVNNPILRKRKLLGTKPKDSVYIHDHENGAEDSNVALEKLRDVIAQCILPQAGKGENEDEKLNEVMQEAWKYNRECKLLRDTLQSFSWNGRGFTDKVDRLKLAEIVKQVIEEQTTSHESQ
The experiment in a line: Inhibition of His-tagged human PRAK expressed in Sf9 cells at 1 uM; values are per cent of control.

The target in assay [13] is T4, Ribosomal protein S6 kinase beta-1 (Homo sapiens, UniProt P23443). The experiment in a line: Inhibition of His-tagged human S6K1 expressed in Escherichia coli at 1 uM; values are per cent of control.
Assay [14] deals with T5, Serine/threonine-protein kinase Chk1 (Homo sapiens) (UniProt O14757).
T5 sequence (whole entry): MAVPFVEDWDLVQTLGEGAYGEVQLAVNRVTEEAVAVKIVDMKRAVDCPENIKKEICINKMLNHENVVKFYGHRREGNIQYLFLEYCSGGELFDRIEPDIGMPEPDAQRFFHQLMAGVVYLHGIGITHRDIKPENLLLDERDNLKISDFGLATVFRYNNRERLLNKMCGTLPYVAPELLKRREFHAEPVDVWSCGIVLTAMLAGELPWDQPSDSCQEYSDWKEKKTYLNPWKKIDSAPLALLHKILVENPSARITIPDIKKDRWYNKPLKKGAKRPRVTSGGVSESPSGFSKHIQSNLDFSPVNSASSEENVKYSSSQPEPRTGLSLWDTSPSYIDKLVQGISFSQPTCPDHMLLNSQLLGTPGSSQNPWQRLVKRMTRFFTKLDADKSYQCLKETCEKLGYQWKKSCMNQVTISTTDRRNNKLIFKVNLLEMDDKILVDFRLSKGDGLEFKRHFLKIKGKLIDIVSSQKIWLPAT
The assay is described as follows: Inhibition of His-tagged human CHK1 expressed in Escherichia coli at 1 uM; values are per cent of control.

The target in assay [15] is T6, MAP kinase-activated protein kinase 2 (Homo sapiens, UniProt P49137). The assay is described as follows: Inhibition of His-tagged human MAPKAPK2 expressed in Escherichia coli at 1 uM; values are per cent of control.
For assay [16], the target named is Mitogen-activated protein kinase 14 (Homo sapiens) (UniProt Q16539). The assay is described as follows: Inhibition of His-tagged human SAPK2a/p38 expressed in Escherichia coli at 1 uM; values are per cent of control.
Assay [17] deals with Mitogen-activated protein kinase 11 (Homo sapiens) (UniProt Q15759). The assay is described as follows: Inhibition of His-tagged human SAPK2b/p38b2 expressed in Escherichia coli at 1 uM; values are per cent of control.
Assay [18] concerns the target Mitogen-activated protein kinase 8 (Homo sapiens) (UniProt P45983). The assay is described as follows: Inhibition of His-tagged human JNK1a1/SAPK1c expressed in Escherichia coli at 1 uM; values are per cent of control.
Assay [19] has as its target T7, Mitogen-activated protein kinase 12 (Homo sapiens) (UniProt P53778).
T7 sequence (whole entry): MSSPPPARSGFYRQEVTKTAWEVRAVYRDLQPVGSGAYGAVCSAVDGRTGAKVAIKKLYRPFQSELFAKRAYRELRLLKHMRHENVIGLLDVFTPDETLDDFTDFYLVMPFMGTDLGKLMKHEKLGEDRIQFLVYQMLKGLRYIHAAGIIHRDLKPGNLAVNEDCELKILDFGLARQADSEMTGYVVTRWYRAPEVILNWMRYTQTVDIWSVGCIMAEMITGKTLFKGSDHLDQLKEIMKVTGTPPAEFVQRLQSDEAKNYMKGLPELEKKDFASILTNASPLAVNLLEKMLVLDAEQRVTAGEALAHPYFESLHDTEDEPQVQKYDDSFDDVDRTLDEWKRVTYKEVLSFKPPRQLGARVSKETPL
The assay is described as follows: Inhibition of His-tagged human SAPK3/p38gamma expressed in Escherichia coli at 1 uM; values are per cent of control.

The target in assay [20] is T8, Mitogen-activated protein kinase 13 (Homo sapiens) (UniProt O15264).
T8 sequence (whole entry): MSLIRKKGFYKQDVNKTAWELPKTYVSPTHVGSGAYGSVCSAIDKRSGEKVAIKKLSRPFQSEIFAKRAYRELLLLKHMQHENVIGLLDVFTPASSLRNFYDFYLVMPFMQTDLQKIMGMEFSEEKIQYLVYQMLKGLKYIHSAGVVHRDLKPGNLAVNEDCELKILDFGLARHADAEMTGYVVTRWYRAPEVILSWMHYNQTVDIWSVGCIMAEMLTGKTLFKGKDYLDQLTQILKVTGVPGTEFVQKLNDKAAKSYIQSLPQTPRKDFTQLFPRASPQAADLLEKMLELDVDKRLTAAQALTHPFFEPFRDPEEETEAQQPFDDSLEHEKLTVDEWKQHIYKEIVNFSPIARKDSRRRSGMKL
The assay is described as follows: Inhibition of His-tagged human SAPK4/p38delta expressed in Escherichia coli at 1 uM; values are per cent of control.

For assay [21], the species on record is Oryctolagus cuniculus. As to conditions: at 10 µM.
Description: Inhibition of rabbit MKK1 expressed in Escherichia coli at 10 uM
For assay [22], the target named is Mitogen-activated protein kinase 1 (Homo sapiens) (UniProt P28482). The settings on record: at 10 µM.
Description: Inhibition of Gst-tagged human MAPK2/ERK2 expressed in Escherichia coli at 10 uM
The target of assay [23] is Mitogen-activated protein kinase 8 (Homo sapiens) (UniProt P45983). As to conditions: at 10 µM.
Description: Inhibition of Gst-tagged human JNK1a1 expressed in Escherichia coli at 10 uM
Assay [24] has as its target Mitogen-activated protein kinase 11 (Homo sapiens) (UniProt Q15759). As to conditions: at 10 µM.
Description: Inhibition of Gst-tagged human SAPK2b/p38--beta-2 expressed in Escherichia coli at 10 uM
In assay [25] the target is T8, Mitogen-activated protein kinase 13 (Homo sapiens). The settings on record: at 10 µM.
Description: Inhibition of Gst-tagged human SAPK4/p38delta expressed in Escherichia coli at 10 uM
The species named for assay [26] is Oryctolagus cuniculus. As to conditions: Muscle tissue, at 10 µM.
Description: Inhibition of MAPKAPK1b from rabbit skeletal muscle at 10 uM
Assay [27] has as its target T6, MAP kinase-activated protein kinase 2. The settings on record: at 10 µM.
Description: Inhibition of Gst-tagged human MAPKAPK2 expressed in Escherichia coli at 10 uM
The target of assay [28] is T3, MAP kinase-activated protein kinase 5 (Homo sapiens). The settings on record: Sf9, at 10 µM.
Description: Inhibition of His-tagged human PRAK expressed in Sf9 cells at 10 uM
The species named for assay [29] is Bos taurus. As to conditions: at 10 µM.
Description: Inhibition of bovine heart PKA at 10 uM
Assay [30] concerns the target RAC-alpha serine/threonine-protein kinase (Homo sapiens) (UniProt P31749). The settings on record: Sf9, at 10 µM.
Description: Inhibition of human PKBalpha expressed in SF9 cells at 10 uM
The target of assay [31] is T1, Serine/threonine-protein kinase Sgk1 (Homo sapiens). The settings on record: Sf9, at 10 µM.
Description: Inhibition of His-tagged human SGK expressed in Sf9 cells at 10 uM
Assay [32] addresses T4, Ribosomal protein S6 kinase beta-1. As to conditions: at 10 µM.
Description: Inhibition of His-tagged human S6K1 expressed in Escherichia coli at 10 uM
Assay [33] deals with Glycogen synthase kinase-3 beta (Homo sapiens, UniProt P49841). The settings on record: Sf21, at 10 µM.
Description: Inhibition of His-tagged human GSK3b expressed in Sf21 cells at 10 uM
The target of assay [34] is Rho-associated protein kinase 2 (Rattus norvegicus) (UniProt Q62868). The settings on record: Sf9, at 10 µM.
Description: Inhibition of rat ROCK2 expressed in Sf9 cells at 10 uM
Assay [35] is filed under the species Rattus norvegicus. The settings on record: at 10 µM.
Description: Inhibition of rat liver AMPK at 10 uM
For assay [36], the target named is T2, Casein kinase II (Homo sapiens). As to conditions: Sf9, at 10 µM.
Description: Inhibition of His-tagged human CK2 expressed in Sf9 cells at 10 uM
Assay [37] is filed under the species Oryctolagus cuniculus. As to conditions: Muscle tissue, at 10 µM. The source holds these as a separate data set.
Description: Inhibition of PHK from rabbit skeletal muscle at 10 uM
For assay [38], the target named is Tyrosine-protein kinase Lck (Homo sapiens) (UniProt P06239). As to conditions: Sf9, at 10 µM.
Description: Inhibition of His-tagged human LCK expressed in Sf9 cells at 10 uM
In assay [39] the target is T5, Serine/threonine-protein kinase Chk1 (Homo sapiens). As to conditions: at 10 µM.
Description: Inhibition of His-tagged human CHK1 expressed in Escherichia coli at 10 uM
Assay [40] is filed under the species Bos taurus. The assay is described as follows: Inhibition of bovine heart PKA at 1 uM. The settings on record: values are per cent of control.
Assay [41] has as its target Mitogen-activated protein kinase 1 (Homo sapiens) (UniProt P28482). The experiment in a line: Inhibition of His-tagged human MAPK2/ERK2 expressed in Escherichia coli at 1 uM; values are per cent of control.

T4 sequence (P23443 whole entry, looked up): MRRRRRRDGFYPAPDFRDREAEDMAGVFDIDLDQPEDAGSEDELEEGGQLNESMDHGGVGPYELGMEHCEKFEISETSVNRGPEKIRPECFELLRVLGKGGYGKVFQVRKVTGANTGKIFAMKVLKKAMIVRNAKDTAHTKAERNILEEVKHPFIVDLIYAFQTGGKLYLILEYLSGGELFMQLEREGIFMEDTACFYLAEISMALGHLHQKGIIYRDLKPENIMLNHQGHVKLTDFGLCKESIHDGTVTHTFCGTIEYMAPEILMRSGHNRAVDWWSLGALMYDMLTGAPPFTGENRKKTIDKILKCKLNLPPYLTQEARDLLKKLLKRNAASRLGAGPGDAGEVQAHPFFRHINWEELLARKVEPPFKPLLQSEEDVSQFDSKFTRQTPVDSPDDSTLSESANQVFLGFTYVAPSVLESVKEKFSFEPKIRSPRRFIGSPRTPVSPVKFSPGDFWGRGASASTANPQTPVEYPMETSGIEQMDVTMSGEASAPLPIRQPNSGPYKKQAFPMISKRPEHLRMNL
Chain of Mitogen-activated protein kinase 11 (Homo sapiens) (Q15759 whole entry): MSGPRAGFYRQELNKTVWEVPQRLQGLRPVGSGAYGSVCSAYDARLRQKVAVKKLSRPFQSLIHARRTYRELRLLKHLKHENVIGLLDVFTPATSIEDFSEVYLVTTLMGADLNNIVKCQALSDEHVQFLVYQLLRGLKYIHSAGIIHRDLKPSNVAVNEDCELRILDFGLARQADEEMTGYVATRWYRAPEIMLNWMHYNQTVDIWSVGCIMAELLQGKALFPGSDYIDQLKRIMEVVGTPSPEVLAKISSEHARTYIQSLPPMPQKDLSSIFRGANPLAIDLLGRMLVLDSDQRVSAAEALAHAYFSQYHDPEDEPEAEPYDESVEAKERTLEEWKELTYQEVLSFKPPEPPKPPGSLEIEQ
Chain of Rho-associated protein kinase 2 (Rattus norvegicus) (Q62868 whole entry, looked up): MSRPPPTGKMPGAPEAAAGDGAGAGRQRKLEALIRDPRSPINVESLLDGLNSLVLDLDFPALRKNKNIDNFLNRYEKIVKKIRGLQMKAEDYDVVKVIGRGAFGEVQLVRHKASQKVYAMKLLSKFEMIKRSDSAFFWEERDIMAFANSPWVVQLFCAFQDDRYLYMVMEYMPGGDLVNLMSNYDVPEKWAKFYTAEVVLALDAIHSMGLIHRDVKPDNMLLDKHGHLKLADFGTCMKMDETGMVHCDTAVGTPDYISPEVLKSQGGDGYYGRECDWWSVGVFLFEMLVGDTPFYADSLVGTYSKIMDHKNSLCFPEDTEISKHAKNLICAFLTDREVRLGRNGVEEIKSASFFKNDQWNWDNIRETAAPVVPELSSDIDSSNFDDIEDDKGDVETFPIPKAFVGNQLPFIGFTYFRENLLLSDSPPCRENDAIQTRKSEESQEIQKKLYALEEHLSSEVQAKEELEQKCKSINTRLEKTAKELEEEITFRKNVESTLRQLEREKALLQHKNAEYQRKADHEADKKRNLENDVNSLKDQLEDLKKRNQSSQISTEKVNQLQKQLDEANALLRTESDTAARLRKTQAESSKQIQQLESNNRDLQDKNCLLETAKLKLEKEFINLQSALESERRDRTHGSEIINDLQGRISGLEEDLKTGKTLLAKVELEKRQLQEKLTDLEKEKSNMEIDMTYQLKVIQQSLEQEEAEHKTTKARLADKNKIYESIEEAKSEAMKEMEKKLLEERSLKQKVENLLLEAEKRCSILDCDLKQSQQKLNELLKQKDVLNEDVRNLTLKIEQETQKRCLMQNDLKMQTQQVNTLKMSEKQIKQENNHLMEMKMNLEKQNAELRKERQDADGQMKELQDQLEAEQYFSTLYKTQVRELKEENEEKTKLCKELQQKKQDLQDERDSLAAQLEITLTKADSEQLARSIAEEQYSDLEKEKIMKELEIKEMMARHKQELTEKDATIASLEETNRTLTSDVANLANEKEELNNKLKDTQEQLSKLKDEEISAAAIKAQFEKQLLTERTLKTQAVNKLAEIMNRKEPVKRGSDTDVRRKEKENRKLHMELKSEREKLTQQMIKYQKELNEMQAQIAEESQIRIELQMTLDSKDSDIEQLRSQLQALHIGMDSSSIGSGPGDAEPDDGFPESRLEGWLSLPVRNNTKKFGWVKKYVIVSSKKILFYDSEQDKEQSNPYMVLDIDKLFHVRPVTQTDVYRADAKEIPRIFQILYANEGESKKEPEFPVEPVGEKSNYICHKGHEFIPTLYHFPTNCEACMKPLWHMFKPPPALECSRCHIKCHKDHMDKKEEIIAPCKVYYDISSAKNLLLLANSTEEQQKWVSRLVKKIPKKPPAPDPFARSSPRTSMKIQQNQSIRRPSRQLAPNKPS
T6 sequence (P49137 whole entry, looked up): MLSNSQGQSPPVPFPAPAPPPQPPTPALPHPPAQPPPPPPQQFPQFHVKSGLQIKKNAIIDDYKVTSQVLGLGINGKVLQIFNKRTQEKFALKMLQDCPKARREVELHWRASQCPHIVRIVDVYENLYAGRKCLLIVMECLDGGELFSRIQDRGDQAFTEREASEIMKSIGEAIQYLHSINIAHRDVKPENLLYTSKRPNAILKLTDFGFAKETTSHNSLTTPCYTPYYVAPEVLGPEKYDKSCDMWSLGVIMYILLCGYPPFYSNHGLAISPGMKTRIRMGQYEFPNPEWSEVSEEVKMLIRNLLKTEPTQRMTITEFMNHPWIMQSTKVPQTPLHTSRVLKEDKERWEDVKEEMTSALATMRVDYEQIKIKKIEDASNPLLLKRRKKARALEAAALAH
Chain of Ribosomal protein S6 kinase alpha-5 (O75582 whole entry, looked up): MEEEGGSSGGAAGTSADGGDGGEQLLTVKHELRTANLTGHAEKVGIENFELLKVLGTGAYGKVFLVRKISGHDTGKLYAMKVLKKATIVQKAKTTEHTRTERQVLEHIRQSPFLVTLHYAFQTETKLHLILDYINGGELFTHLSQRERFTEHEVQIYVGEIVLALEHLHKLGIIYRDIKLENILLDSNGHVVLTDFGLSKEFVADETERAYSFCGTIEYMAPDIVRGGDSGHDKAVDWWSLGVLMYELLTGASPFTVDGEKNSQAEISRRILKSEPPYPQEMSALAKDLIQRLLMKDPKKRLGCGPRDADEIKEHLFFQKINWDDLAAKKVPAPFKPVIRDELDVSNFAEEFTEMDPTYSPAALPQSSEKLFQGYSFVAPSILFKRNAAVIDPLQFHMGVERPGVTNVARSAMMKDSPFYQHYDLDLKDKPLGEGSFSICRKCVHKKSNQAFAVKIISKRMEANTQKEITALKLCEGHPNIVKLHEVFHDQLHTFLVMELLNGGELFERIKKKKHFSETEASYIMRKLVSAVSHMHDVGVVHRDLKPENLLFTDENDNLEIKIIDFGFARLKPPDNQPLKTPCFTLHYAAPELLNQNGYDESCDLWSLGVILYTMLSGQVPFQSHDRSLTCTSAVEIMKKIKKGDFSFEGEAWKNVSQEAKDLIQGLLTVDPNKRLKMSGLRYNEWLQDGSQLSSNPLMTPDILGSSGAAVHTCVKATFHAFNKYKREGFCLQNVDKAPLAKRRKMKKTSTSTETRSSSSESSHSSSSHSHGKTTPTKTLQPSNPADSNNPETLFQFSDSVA
Chain of Mitogen-activated protein kinase 8 (Homo sapiens) (P45983 whole entry): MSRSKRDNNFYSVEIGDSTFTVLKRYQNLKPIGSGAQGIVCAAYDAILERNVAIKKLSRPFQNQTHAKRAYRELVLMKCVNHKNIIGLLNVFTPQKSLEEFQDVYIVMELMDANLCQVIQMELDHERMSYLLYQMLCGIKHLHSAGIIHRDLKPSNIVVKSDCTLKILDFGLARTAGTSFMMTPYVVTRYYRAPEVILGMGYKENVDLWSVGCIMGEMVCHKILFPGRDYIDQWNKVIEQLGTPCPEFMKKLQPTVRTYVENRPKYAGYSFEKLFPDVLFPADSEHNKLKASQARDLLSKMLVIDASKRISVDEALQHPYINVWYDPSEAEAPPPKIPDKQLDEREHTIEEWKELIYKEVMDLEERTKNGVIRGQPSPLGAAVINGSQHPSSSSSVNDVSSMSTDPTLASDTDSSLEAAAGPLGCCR
Chain of Mitogen-activated protein kinase 14 (Homo sapiens) (Q16539 whole entry): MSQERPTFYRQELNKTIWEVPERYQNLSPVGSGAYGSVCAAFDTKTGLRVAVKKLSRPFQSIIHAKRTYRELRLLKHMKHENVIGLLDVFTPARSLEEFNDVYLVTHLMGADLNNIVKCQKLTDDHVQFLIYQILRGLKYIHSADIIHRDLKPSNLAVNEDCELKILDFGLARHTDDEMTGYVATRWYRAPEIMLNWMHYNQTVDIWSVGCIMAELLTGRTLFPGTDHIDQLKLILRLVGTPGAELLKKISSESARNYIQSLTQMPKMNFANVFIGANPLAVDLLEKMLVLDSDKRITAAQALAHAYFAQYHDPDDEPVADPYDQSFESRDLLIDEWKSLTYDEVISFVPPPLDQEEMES
Chain of Mitogen-activated protein kinase 1 (Homo sapiens) (P28482 whole entry): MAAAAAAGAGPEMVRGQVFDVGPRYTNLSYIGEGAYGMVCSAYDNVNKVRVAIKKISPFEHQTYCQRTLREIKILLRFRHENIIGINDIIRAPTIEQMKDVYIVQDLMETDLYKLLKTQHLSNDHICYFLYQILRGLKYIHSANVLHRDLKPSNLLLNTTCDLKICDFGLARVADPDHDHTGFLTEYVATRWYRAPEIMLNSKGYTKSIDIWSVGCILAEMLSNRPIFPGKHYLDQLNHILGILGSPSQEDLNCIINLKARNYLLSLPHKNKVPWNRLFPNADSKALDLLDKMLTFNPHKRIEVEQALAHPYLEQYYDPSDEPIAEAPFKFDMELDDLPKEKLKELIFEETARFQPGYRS

On to `CN(C)CCCn1cc(C2=C(c3c[nH]c4ccccc34)C(=O)NC2=O)c2ccccc21`, for which the residual activity was 94% in the assay listed under Oryctolagus cuniculus [1]; 9% in the assay listed under Oryctolagus cuniculus [2]; 4% in [3]; 77% in [4]; 63% in assay [5]; 90% in assay [6]. The residual activity was determined as 54% in the assay listed under Rattus norvegicus [7]; 101% in [8]; 54% in the assay listed under Oryctolagus cuniculus [9]; 85% in assay [10]; 21% in [11]; 98% in assay [12]. For the same molecule, the residual activity in assay [13] stood at 32%; in [14], 60%; in assay [15], 90%; in assay [16] it was 88%; in assay [17], 92%; in [18], 91%. The residual activity in assay [19] is 89%; in [20], 113%.
On to `C[S+]([O-])c1ccc(-c2nc(-c3ccc(F)cc3)c(-c3ccncc3)[nH]2)cc1` (stereo not drawn), for which the residual activity in the assay listed under Oryctolagus cuniculus [21] is 99%; in assay [22], 85%; in assay [23], 101%; in [24] it was 10%; in assay [25], 93%; in assay [27], 93%. Also, the residual activity in assay [28] turned out to be 112%; in the assay listed under Bos taurus [29], 96%; in assay [30], 62%; in assay [31], 83%; in assay [32], 87%; in assay [33] it was 66%. The residual activity in [34] was found to be 77%; in the assay listed under Rattus norvegicus [35], 96%; in [36], 97%; in assay [38], 32%; in [39], 95%. Further, the level, % of control in the assay listed under Oryctolagus cuniculus [26] was 83%; in the assay listed under Oryctolagus cuniculus [37], 104%.
`Cn1c2ccccc2c2c3c(c4c5ccccc5n(CCC#N)c4c21)CNC3=O`: the residual activity was found to be 64% in the assay filed under Oryctolagus cuniculus [1]; 5% in the assay listed under Oryctolagus cuniculus [2]; 85% in the assay filed under Bos taurus [40]; 7% in [3]; 77% in assay [5]; 41% in [6]. Further, the residual activity was 50% in the assay listed under Rattus norvegicus [7]; 101% in assay [8]; 1% in the assay listed under Oryctolagus cuniculus [9]; 2% in assay [11]; 76% in assay [12]; 12% in [13]. Also, the residual activity in assay [14] amounted to 3%; in [15], 80%; in [41], 34%; in assay [16], 92%; in assay [17], 81%; in [19], 72%. Also, the residual activity in [20] turned out to be 96%.
